Values after ≈ are worked out from the molar mass of the structure shown.
Legend:
IMC ascites tumor = assay: Concomitant treatment with bleomycin and spermidine on IMC ascites tumor, survival; type: in vivo, CDF1 mice
Method: (§1) The pharmacological effects of spermidine will be illustrated by reference to the following experimental examples, in which spermidine was administered as its phosphate dissolved in physiological saline.
(c) 1×10^6 IMC cancer cells were transplanted into CDF1 mice by intraperitoneal injection (Day 0). Bleomycin (5 mg/kg) was administered once daily for 5 consecutive days, and spermidine (5 mg/kg) was administered a total of 10 times on alternative days. The effect of concomitant treatment with spermidine and the anticancer drug was evaluated by considering the number of days that the mice survived.

mouse leukemia L-1210 = assay: Survival of CDF1 mice transplanted with mouse leukemia L-1210; type: in vivo; conditions: for Increase of life span: control = 100, mice surviving 60 days excluded
Method: as §1
(b) 1×10^2 mouse leukemia L-1210 cells were transplanted into CDF1 mice by subcutaneous injection (Day 0). From Day 1 onwards, 0.5 to 5 mg/kg of spermidine was administered in total of 10 times, once daily on alternative days, to investigate on the number of days the mice survived.

IMC carcinoma = assay: Antitumor effect on IMC carcinoma transplanted subcutaneously into CDF1 mice; type: in vivo; conditions: for Weight of tumor ± S.D.: 10 times on alternative days, day 30, in mg (unit assumed)
Method: as §1
(§2) (a) The antitumor effect of spermidine was investigated on IMC carcinoma successively transplanted into CDF1 mice and on S180 sarcoma transplanted into ICR mice. 1×10^6 tumor cells of each of the above type were transplanted subcutaneously into such mice (Day 0). From Day 1 onwards, spermidine was intraperitoneally injected a total of 10 times (once daily on alternative days). Thirty days after transplantation of tumor cells, the tumor was removed and weighed to evaluate the effect of spermidine.

S-180 sarcoma = assay: Antitumor effect on S180 sarcoma transplanted subcutaneously into ICR mice; type: in vivo; conditions: for Weight of tumor ± S.D.: 10 times on alternative days, day 30, in mg (unit assumed)
Method: as §1, §2

L-1210 cells = assay: Growth inhibitory effect on cultured L-1210 cells; type: cell-based; conditions: Mus musculus, L1210, 48 hours, 37° C., read-out: concentration at which 50% of the original cells were inhibited from growth
Method: A study was conducted on the growth inhibitory effect of spermidine on cultures of IMC cancer cells and L-1210 cells. IMC cancer cells were cultured in an RPMI 1640 medium containing 10% bovine fetus serum and 2-mercaptoethanol, and L-1210 cells in an MEM medium containing 10% calf serum, for 48 hours at 37° C. in 5% carbon dioxide. The number of cultured cells was counted with a Coulter counter to evaluate the degree of cell proliferation. Spermidine was added at the start of incubation.

[1] = 5 mg/kg, 10 times on alternative days

## NCCCCNCCCN [Spermidine, spermidine]
IMC ascites tumor; spermidine (5 mg/kg) alone
  Survival rate on Day 60: 0/10
IMC ascites tumor; spermidine (5 mg/kg) alone, 10 times on alternative days
  Survival period: 20.1 ± 2.3 days
IMC ascites tumor; spermidine (5 mg/kg) alone, control = 100
  Increase of life span: 114%
IMC ascites tumor; spermidine alone
  life span increase against the control group: 14%
Mouse leukemia L-1210; 0.5 mg/kg
  Survival rate on Day 60: 1/10
  Increase of life span: 109%
Mouse leukemia L-1210; 0.5 mg/kg, 10 times on alternative days
  Survival period: 16.0 ± 3.1 days
Mouse leukemia L-1210; 5 mg/kg
  Survival rate on Day 60: 3/10
  Increase of life span: 104%
Mouse leukemia L-1210; [1]
  Survival period: 15.2 ± 2.2 days
  complete remission: 3 out of 10
IMC carcinoma; 0.05 mg/kg/day i.p.
  % inhibition (weight of tumor): 26%
  Weight of tumor ± S.D.: 5112 ± 2263
IMC carcinoma; 0.5 mg/kg/day i.p.
  % inhibition (weight of tumor): 58%
  Weight of tumor ± S.D.: 2893 ± 964
IMC carcinoma; 5 mg/kg/day i.p.
  % inhibition (weight of tumor): 40%
  Weight of tumor ± S.D.: 4125 ± 1852
IMC carcinoma; 50 mg/kg/day i.p.
  % inhibition (weight of tumor): 44%
  Weight of tumor ± S.D.: 3886 ± 1351
S-180 sarcoma; 0.05 mg/kg/day i.p.
  % inhibition (weight of tumor): 9%
  Weight of tumor ± S.D.: 5193 ± 1522
S-180 sarcoma; 0.5 mg/kg/day i.p.
  % inhibition (weight of tumor): 35%
  Weight of tumor ± S.D.: 3689 ± 1331
S-180 sarcoma; 5 mg/kg/day i.p.
  % inhibition (weight of tumor): 63%
  Weight of tumor ± S.D.: 2087 ± 1040
S-180 sarcoma; 50 mg/kg/day i.p.
  % inhibition (weight of tumor): 43%
  Weight of tumor ± S.D.: 3245 ± 1106
L-1210 cells
  IC50: 2.8 µg/mL (≈ 19.3 µM)
